Experimental data taken from paper PMC11830721 (Frontiers in Pharmacology, 2025).
pIC50: −log10 of the molar value.

Key:
Type in all cases: biochemical
60 non-target kinases = test: SelectScreen kinase selectivity profiling, whole panel; details: all 60 kinases
Text: Moreover, we extended the kinase selectivity profiling of FLIN-4 to evaluate its inhibitory activity against 60 non-target kinases.

ABL2 = ABL2 (Homo sapiens, UniProt P42684); test: SelectScreen kinase selectivity assay; details: ten-dose 0.25–128 μM
Method: (§1) Following the standardized kinase activity assay protocol as previously reported, we utilized the SelectScreen Kinase Profiling Service (Thermo Fisher Scientific) to determine the kinase selectivity profile of FLIN-4 ([van der Wel et al., 2020]). Through a ten-dose dilution series ranging from 0.25 μM to 128 μM in dose-response experiments, we precisely measured the inhibitory effect of FLIN-4 on the substrate phosphorylation reactions catalyzed by a panel of kinases, and thus ascertained the half-maximal inhibitory concentrations (IC50) for each kinase.

EPHA6 = EPHA6 (Homo sapiens, UniProt Q9UF33); test: SelectScreen kinase selectivity assay; details: ten-dose 0.25–128 μM
Method: as §1

FGFR1 = FGFR1 (Homo sapiens, UniProt P11362); test: SelectScreen kinase selectivity assay; details: ten-dose 0.25–128 μM
Method: as §1

NTRK2 = NTRK2 (Homo sapiens, UniProt Q16620); test: SelectScreen kinase selectivity assay; details: ten-dose 0.25–128 μM
Method: as §1

EPHB2 = EPHB2 (Homo sapiens, UniProt P29323); test: SelectScreen kinase selectivity assay; details: ten-dose 0.25–128 μM
Method: as §1

ABL1 = ABL1 (Homo sapiens, UniProt P00519); test: SelectScreen kinase selectivity assay; details: ten-dose 0.25–128 μM
Method: as §1

BTK = BTK (Homo sapiens, UniProt Q06187); test: SelectScreen kinase selectivity assay; details: ten-dose 0.25–128 μM
Sequence of BTK (Q06187 whole entry): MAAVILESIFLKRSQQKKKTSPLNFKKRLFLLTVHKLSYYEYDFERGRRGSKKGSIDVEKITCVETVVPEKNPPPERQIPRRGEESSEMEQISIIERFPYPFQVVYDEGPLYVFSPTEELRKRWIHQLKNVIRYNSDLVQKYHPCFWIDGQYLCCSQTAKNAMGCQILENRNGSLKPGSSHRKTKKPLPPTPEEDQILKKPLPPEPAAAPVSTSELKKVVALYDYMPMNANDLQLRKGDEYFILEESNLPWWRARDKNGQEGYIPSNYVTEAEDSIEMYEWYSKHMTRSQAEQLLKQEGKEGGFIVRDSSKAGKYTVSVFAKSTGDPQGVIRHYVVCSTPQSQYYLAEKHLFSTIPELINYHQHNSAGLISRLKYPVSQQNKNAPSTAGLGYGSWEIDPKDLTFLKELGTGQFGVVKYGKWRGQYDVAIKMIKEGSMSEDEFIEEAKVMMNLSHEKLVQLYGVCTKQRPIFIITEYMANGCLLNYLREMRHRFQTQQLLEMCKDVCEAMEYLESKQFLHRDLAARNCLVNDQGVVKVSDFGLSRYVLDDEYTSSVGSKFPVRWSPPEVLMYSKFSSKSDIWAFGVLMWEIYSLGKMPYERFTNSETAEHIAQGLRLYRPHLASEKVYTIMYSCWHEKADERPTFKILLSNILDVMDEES
Method: as §1

PDGFRB = PDGFRB (Homo sapiens, UniProt P09619); test: SelectScreen kinase selectivity assay; details: ten-dose 0.25–128 μM
Method: as §1

ZAK = ZAK (Homo sapiens, UniProt Q9NYL2); test: SelectScreen kinase selectivity assay; details: ten-dose 0.25–128 μM
Sequence of ZAK (Q9NYL2 whole entry): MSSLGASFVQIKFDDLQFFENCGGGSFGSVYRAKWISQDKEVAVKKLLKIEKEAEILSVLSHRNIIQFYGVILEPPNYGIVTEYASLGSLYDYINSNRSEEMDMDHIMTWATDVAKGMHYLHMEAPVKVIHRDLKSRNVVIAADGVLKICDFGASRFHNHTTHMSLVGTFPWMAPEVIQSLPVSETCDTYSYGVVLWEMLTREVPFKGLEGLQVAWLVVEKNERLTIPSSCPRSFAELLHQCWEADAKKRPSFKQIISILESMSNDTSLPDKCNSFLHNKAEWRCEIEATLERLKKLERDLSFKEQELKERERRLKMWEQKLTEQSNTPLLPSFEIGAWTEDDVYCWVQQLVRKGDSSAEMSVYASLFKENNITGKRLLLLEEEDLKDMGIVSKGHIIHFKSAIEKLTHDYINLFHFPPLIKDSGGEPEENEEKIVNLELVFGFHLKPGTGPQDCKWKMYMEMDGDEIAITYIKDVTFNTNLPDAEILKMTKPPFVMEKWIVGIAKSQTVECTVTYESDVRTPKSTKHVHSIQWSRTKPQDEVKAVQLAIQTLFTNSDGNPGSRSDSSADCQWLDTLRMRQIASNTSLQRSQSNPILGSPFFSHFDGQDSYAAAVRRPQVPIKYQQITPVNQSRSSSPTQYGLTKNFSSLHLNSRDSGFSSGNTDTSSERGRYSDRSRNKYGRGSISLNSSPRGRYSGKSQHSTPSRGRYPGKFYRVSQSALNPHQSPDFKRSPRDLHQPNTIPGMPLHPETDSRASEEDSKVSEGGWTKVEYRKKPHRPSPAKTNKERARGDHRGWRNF
Method: as §1

PDGFRA = PDGFRA (Homo sapiens, UniProt P16234); test: SelectScreen kinase selectivity assay; details: ten-dose 0.25–128 μM
Method: as §1

CDK2 = CDK2 (Homo sapiens, UniProt P24941); test: SelectScreen kinase selectivity assay; details: ten-dose 0.25–128 μM
Method: as §1

BLK = BLK (Homo sapiens, UniProt P51451); test: SelectScreen kinase selectivity assay; details: ten-dose 0.25–128 μM
Sequence of BLK (P51451 whole entry): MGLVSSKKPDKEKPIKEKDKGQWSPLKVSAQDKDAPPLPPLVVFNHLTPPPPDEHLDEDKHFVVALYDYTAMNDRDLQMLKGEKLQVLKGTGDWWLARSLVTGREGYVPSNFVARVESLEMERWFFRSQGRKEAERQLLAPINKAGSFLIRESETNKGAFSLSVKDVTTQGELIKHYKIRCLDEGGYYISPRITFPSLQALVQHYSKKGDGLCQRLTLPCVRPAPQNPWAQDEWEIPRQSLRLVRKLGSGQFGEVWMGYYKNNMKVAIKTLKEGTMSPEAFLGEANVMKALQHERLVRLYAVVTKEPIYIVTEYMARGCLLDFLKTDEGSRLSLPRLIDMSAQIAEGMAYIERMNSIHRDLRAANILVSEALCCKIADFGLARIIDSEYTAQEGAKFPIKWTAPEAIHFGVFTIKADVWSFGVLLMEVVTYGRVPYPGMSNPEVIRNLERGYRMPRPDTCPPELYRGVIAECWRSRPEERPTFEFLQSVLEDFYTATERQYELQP
Method: as §1

LYN = LYN (Homo sapiens, UniProt P07948); test: SelectScreen kinase selectivity assay; details: ten-dose 0.25–128 μM
Method: as §1

FRK = FRK (Homo sapiens, UniProt P42685); test: SelectScreen kinase selectivity assay; details: ten-dose 0.25–128 μM
Method: as §1

EPHB4 = EPHB4 (Homo sapiens, UniProt P54760); test: SelectScreen kinase selectivity assay; details: ten-dose 0.25–128 μM
Method: as §1

INSRR = INSRR (Homo sapiens, UniProt P14616); test: SelectScreen kinase selectivity assay; details: ten-dose 0.25–128 μM
Method: as §1

MET = MET (Homo sapiens, UniProt P08581); test: SelectScreen kinase selectivity assay; details: ten-dose 0.25–128 μM
Method: as §1

IGF1R = IGF1R (Homo sapiens, UniProt P08069); test: SelectScreen kinase selectivity assay; details: ten-dose 0.25–128 μM
Method: as §1

ZAP70 = ZAP70 (Homo sapiens, UniProt P43403); test: SelectScreen kinase selectivity assay; details: ten-dose 0.25–128 μM
Method: as §1

CSF1R = CSF1R (Homo sapiens, UniProt P07333); test: SelectScreen kinase selectivity assay; details: ten-dose 0.25–128 μM
Method: as §1

MUSK = MUSK (Homo sapiens, UniProt O15146); test: SelectScreen kinase selectivity assay; details: ten-dose 0.25–128 μM
Sequence of MUSK (O15146 24-869): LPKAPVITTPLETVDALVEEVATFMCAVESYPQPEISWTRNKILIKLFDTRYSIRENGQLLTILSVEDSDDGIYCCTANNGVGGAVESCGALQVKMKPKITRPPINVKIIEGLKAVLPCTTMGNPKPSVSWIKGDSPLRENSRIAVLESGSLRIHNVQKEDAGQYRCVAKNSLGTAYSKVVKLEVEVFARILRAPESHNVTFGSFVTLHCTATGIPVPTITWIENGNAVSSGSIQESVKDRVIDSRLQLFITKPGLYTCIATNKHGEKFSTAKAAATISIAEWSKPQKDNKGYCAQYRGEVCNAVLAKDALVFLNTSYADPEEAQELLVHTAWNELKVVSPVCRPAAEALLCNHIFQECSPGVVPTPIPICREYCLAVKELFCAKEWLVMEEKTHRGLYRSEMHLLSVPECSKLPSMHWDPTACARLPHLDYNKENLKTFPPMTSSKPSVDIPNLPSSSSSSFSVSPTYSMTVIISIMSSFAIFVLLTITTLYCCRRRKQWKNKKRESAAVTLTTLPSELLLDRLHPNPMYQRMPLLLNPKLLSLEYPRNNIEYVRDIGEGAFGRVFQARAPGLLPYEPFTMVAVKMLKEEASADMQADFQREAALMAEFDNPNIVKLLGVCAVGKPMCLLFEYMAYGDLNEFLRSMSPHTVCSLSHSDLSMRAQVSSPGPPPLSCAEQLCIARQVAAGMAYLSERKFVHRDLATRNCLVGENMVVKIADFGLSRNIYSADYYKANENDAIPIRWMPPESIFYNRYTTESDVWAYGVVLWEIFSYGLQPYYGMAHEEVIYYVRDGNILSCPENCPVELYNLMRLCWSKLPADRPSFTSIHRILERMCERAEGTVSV
Method: as §1

ITK = ITK (Homo sapiens, UniProt Q08881); test: SelectScreen kinase selectivity assay; details: ten-dose 0.25–128 μM
Method: as §1

JAK2 = JAK2 (Homo sapiens, UniProt O60674); test: SelectScreen kinase selectivity assay; details: ten-dose 0.25–128 μM
Method: as §1

PTK2 = PTK2 (Homo sapiens, UniProt Q05397); test: SelectScreen kinase selectivity assay; details: ten-dose 0.25–128 μM
Method: as §1

JAK3 = JAK3 (Homo sapiens, UniProt P52333); test: SelectScreen kinase selectivity assay; details: ten-dose 0.25–128 μM
Method: as §1

EPHA3 = EPHA3 (Homo sapiens, UniProt P29320); test: SelectScreen kinase selectivity assay; details: ten-dose 0.25–128 μM
Method: as §1

ROS1 = ROS1 (Homo sapiens, UniProt P08922); test: SelectScreen kinase selectivity assay; details: ten-dose 0.25–128 μM
Method: as §1

MST1R = MST1R (Homo sapiens, UniProt Q04912); test: SelectScreen kinase selectivity assay; details: ten-dose 0.25–128 μM
Method: as §1

EPHA5 = EPHA5 (Homo sapiens, UniProt P54756); test: SelectScreen kinase selectivity assay; details: ten-dose 0.25–128 μM
Sequence of EPHA5 (P54756 25-1037): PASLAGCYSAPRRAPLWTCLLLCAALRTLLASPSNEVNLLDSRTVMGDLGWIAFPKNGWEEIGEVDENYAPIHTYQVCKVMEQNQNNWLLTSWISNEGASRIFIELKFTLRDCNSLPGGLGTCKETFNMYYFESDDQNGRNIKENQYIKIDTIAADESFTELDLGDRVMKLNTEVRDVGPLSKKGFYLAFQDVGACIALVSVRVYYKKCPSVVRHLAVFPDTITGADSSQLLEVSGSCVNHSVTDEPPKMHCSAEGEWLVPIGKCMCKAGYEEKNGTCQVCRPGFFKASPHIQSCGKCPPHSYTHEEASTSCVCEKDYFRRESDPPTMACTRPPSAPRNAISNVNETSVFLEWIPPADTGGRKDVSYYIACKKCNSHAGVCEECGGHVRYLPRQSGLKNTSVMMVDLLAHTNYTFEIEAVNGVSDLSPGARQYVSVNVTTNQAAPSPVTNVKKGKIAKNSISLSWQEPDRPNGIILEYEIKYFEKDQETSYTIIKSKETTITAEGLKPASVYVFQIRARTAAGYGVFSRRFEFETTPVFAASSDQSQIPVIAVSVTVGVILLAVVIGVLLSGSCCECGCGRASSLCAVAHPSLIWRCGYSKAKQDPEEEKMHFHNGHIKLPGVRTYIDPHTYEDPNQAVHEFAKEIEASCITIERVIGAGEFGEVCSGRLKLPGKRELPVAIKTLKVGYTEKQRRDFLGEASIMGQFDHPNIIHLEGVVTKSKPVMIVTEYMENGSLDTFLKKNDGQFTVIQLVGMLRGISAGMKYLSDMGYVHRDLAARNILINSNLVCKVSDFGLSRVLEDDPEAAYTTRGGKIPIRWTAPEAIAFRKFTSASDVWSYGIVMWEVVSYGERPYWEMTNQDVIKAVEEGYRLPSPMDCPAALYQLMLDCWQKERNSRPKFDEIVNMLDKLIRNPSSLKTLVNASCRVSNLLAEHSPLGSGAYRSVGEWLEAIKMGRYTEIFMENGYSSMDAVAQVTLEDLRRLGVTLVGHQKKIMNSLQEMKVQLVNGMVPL
Method: as §1

CDK1 = CDK1 (Homo sapiens, UniProt P06493); test: SelectScreen kinase selectivity assay; details: ten-dose 0.25–128 μM
Method: as §1

NTRK3 = NTRK3 (Homo sapiens, UniProt Q16288); test: SelectScreen kinase selectivity assay; details: ten-dose 0.25–128 μM
Method: as §1

FYN = FYN (Homo sapiens, UniProt P06241); test: SelectScreen kinase selectivity assay; details: ten-dose 0.25–128 μM
Method: as §1

RAF1 = RAF1 (Homo sapiens, UniProt P04049, Y340D/Y341D); test: SelectScreen kinase selectivity assay; details: ten-dose 0.25–128 μM
Method: as §1

EPHA4 = EPHA4 (Homo sapiens, UniProt P54764); test: SelectScreen kinase selectivity assay; details: ten-dose 0.25–128 μM
Method: as §1

FGFR3 = FGFR3 (Homo sapiens, UniProt P22607); test: SelectScreen kinase selectivity assay; details: ten-dose 0.25–128 μM
Method: as §1

NTRK1 = NTRK1 (Homo sapiens, UniProt P04629); test: SelectScreen kinase selectivity assay; details: ten-dose 0.25–128 μM
Method: as §1

KIT = KIT (Homo sapiens, UniProt P10721); test: SelectScreen kinase selectivity assay; details: ten-dose 0.25–128 μM
Sequence of KIT (P10721 26-976): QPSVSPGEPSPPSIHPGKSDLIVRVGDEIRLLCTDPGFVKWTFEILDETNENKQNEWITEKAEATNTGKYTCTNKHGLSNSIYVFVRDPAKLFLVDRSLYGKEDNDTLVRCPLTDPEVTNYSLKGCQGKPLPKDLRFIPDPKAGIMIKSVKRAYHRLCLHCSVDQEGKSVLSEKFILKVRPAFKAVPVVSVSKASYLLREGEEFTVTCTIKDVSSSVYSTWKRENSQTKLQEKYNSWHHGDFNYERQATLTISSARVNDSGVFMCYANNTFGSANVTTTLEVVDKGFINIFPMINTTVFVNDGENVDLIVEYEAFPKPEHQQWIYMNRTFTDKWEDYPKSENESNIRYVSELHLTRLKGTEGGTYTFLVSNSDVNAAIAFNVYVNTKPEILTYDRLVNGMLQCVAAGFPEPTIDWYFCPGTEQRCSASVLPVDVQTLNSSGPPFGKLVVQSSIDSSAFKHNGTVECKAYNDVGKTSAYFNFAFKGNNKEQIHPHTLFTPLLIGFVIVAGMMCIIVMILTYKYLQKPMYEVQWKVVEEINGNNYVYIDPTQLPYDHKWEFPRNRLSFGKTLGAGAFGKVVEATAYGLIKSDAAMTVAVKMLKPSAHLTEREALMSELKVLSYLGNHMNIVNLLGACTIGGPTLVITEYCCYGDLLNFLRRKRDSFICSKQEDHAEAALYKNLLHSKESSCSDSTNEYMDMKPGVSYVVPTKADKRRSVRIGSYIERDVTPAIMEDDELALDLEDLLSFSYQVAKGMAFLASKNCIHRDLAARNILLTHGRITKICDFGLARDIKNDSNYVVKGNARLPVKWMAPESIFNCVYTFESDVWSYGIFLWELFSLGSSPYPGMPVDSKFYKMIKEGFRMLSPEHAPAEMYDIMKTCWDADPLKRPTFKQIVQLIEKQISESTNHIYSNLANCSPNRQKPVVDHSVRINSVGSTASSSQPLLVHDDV
Method: as §1

Measured: pIC50

CCc1nc(C(N)=O)c(Nc2ccc(N3CCC(Nc4ccccc4)CC3)c(OC)c2)nc1NC1CCOC(C(O)CO)C1 (centres unmarked) [FLIN-4]
< 5.00: all assays above
